Values quoted from earlier work as cited in patent US10105372B2, “Methods of treating obesity using antioxidant inflammation modulators” (REATA PHARMACEUTICALS, INC., priority 2010, dated 2018).

Conditions: monkey, in vivo, po; cited from earlier work

In the case of `COC(=O)[C@]12CCC(C)(C)C[C@H]1[C@H]1C(=O)C=C3[C@@]4(C)C=C(C#N)C(=O)C(C)(C)[C@@H]4CC[C@@]3(C)[C@]1(C)CC2` [Form B, CDDO-Me], the bioavailability is listed as “higher than that of Form A”.
